Publication PMC9504842, “Comprehensive Metabolic Profiling of Euphorbiasteroid in Rats by Integrating UPLC-Q/TOF-MS and NMR as Well as Microbial Biotransformation” (Metabolites, 2022)

Experiments:
[1] = system: SH-SY5Y neuroblastoma cells; test: CCK-8 cell cytotoxicity assay, SH-SY5Y; type: cell-based; settings: Homo sapiens, 72 h, read-out: IC50 (μM) SH-SY5Y
Method: (§1) Cell cytotoxicity was determined by the CCK-8 assay. Four strains of human cells (SH-SY5Y) were seeded in 96-well plates at a density of 3 × 10^3 cells/well under 37 °C and 5% CO2 for 12 h and subsequently treated with the test sample solution (euphorbiasteroid and its metabolites, 10 μL) for 72 h. After treatment, each well with 10 μL CCK-8 reagent was incubated for 1–2 h in the incubator. Afterwards, the optical OD-value was measured at 450 nm through a microplate reader. Three multiple wells were set as parallel experimental groups.
(§2) Euphorbiasteroid and its metabolites were tested for their cytotoxicity on human cell lines SH-SY5Y, LO2, AC-16, and HK-2 by the CCK-8 assay. […] Therefore, considering the high content of euphorbiasteroid in Euphorbiae semen, it was speculated that the metabolites from hydroxylation and hydrolysis might be the potential toxic constituents of Euphorbiae semen.

LO2 cells = test: CCK-8 cell cytotoxicity assay, LO2; type: cell-based; settings: Homo sapiens, L02, 72 h, read-out: IC50 (μM) LO2
Method: as §1, §2

AC-16 cells = test: CCK-8 cell cytotoxicity assay, AC-16; type: cell-based; settings: Homo sapiens, 72 h, read-out: IC50 (μM) AC-16
Method: as §1, §2

HK-2 cells = test: CCK-8 cell cytotoxicity assay, HK-2; type: cell-based; settings: Homo sapiens, HK-2, 72 h, read-out: IC50 (μM) HK-2
Method: as §1, §2

[2] = Metabolite detection in rats (plasma, urine, feces) after oral euphorbiasteroid by UPLC-Q/TOF-MS; type: in vivo, Sprague-Dawley rats; settings: single oral dose 100 mg/kg euphorbiasteroid
Method: For metabolite separation and detection, chromatographic analyses were performed using a Waters Acquity UPLC I-class system (Waters, Milford, MA, USA), equipped with an auto-sampler, a binary solvent delivery system, an online degasser, and a photodiode array detector. An ACQUITY UPLC® HSS T3 column (2.1 × 150 mm, 1.8 μm, Waters) protected with a HSS T3 VanGuard ™ Pre-Column 3/Pk (2.1 × 5.0 mm, 1.8 μm, Waters) was used. The optimized parameters were set as follows: the mobile phase consisted of eluent A (0.1% formic acid in water, v/v) and eluent B (acetonitrile). The flow rate was 0.3 mL/min. The column and auto-sampler temperatures were maintained at 40 °C and 4 °C, respectively. The gradient elution program was optimized as follows: 0–9 min, 30–70% B; 9–13 min, 70–90% B; 13–17 min, 90–100% B; 17–20 min, 100–100% B.
The mass spectrometry detection was performed on the SYNAPT G2-Si HDMS system, equipped with an electrospray ionization (ESI) source (Waters Corp., Manchester, UK). A positive ion mode was conducted in this analysis. Mass spectrometry conditions were finally set as follows: capillary voltage of 3.0 kV, cone voltage of 40 V, source temperature of 120 °C, and de-solvation temperature of 400 °C. Nitrogen was used as the desolvation and cone gas with a flow rate of 800 and 50 L/h, respectively, and the full-scan mass range was set as m/z 50–1500 Da. In the auto mass spectrometry mode, the collision-induced dissociation energies were set at 0 eV for the precursor ion at the low-energy mode, and the collision-induced dissociation energies were set from 2 to 10 eV for the high-energy mode. Real-time data were calibrated using an external reference (LockSpray™) at a concentration of 0.2 ng/mL with an infusion flow rate of 5 μL/min, generating a reference ion for the positive ion mode (m/z 556.2771) during the UPLC-MS analysis. Data were acquired and processed using MassLynx ™ NT 4.1 software (Waters, Milford, MA, USA).
Male Sprague-Dawley rats (200–220 g) were commercially supplied by Shanghai Sippr-BK Laboratory Animal Co., Ltd. (Shanghai, China) and were housed in a humidity- and temperature-controlled room (50 ± 10% and 22–24 °C) with a 12-h light/dark cycle. The experimental rats were allowed to access food and water ad libitum and acclimatized to the conditions mentioned above for a week, then fasted overnight but with free access to water before the experiments. Euphorbiasteroid was dissolved in soybean oil solution (containing 0.5% ethanol) to form a concentration of 10 mg/mL. A single dose of 100 mg/kg euphorbiasteroid was orally administered to rats and the same concentration of soybean oil solution (containing 0.5% ethanol) was administered as a blank control. All animal procedures were performed in accordance with the Guidelines for Care and Use of Laboratory Animals of Naval Medical University and approved by the Animal Ethics Committee of Naval Medical University.
Blood samples (0.5 mL) were collected from six rats through the orbital sinus before administration (blank sample) and 0.25, 0.5, 1, 2, 4, 6, and 12 h after administration. Plasma samples were prepared by centrifugation at 4000 rpm for 10 min. For urine and feces sampling, 12 rats were divided into an administration group and a blank group, and were placed separately in stainless steel metabolic cages. Urine and feces samples were collected in containers surrounded by ice over 0–6, 6–12, and 12–24 h after drug administration. The mixed urine samples were centrifuged at 4000 rpm for 10 min at 4 °C to obtain the supernatants, and fecal samples were left in a cool and dry place until dry. All the biological samples were frozen at −80 °C before analysis.
An aliquot of 200 µL of plasma and urine samples was put in a 1.5 mL tube, respectively. 800 µL of acetonitrile was added and vortexed for 5 min to extract metabolites. Feces samples (1.0 g) were crushed and then ultrasonically extracted with acetonitrile (10 mL) for 30 min. […]

[3] = In vitro incubation of euphorbiasteroid with rat liver microsomes, metabolite detection; type: in vitro ADME; settings: 37 °C, 1 h, NADPH regenerating system
Method: The microsomal incubation approach was based on previous metabolism studies published by Wintermeyer et al. and Franziska et al.. A 200 μL incubation system containing 10 μL of solution A, 2 μL of solution B, 5 μL of rat liver microsomes (20 mg/mL) and 182 μL 0.1 M PBS buffer (pH = 7.4) was constructed. The above solution was heated in a 37 °C water bath, then 1 μL of euphorbiasteroid (dissolved in DMSO solution, 10 mM) was used to start the reaction, and the mixture was then incubated at 37 °C for 1 h. The reactions were terminated by the addition of 200 μL of ice-cold acetonitrile. The mixture was then centrifuged at 13,000 rpm for 10 min, and a 2-μL aliquot of the supernatant was directly injected into the UPLC-Q-TOF-MS system.
(§3) First, the metabolites of euphorbiasteroid in rats (plasma, urine, and feces), RLMs, and C. elegans culture medium were predicted by setting the prototype components and potential biological metabolic reactions in UNIFI 4.1 software. Then, the predicted metabolites in each sample were further compared according to the characteristic mass spectrum behaviors (including parent ions, internal cleavage in the ion source, and characteristic fragment ions of each metabolite) and retention times.

[4] = system: Cunninghamella elegans bio-110930; test: Microbial transformation of euphorbiasteroid, metabolite detection; settings: C. elegans bio-110930 culture with euphorbiasteroid
Method: The biotransformation process was conducted at two scales: preliminary screening and preparative. Preliminary screening scale biotransformation of euphorbiasteroid was carried out in 250 mL Erlenmeyer flasks containing 100 mL of liquid medium. The flasks were placed on a rotary shaker (160 rpm, 28 °C). A standard two-stage fermentation protocol was employed in all experiments. After 2 days of pre-culture, the substrates of 5 mg (dissolved in 0.5 mL of acetone) were added into each flask. Taking 1 mL samples on days 0, 2, 4, 7, 10, and 14, samples were centrifuged and the degree of transformation was compared to controls on TLC and HPLC, and a 2-μL aliquot of the supernatant was directly injected into the UPLC-Q-TOF-MS system. Culture controls consisted of sterile medium, in which microorganisms were grown under identical conditions without substrate. Substrate controls were composed of sterile medium and the same amount of substrate incubated under the same conditions without microorganisms.
as §3

Row | Compound | IC50 [1] [µM] | IC50 (LO2 cells) [µM] | IC50 (AC-16 cells) [µM] | IC50 (HK-2 cells) [µM] | Distribution Rat Faeces (metabolite detected) [2] | Distribution Rat Plasma (metabolite detected) [2] | Distribution Rat Urine (metabolite detected) [2] | Distribution RLMs (metabolite detected) [3] | Distribution Fungi (metabolite detected) [4]
1 | CC(=O)OC1C2C(OC(=O)Cc3ccccc3)C(C)CC2(OC(C)=O)C(=O)C(C)=CC2C(CCC13CO3)C2(C)C (centres unmarked) [Compound M0, Euphorbiasteroid] | 55 ± 1.2 | > 100 | 97.7 ± 2.13 | > 100 |  |  |  |  | 
2 | CC(=O)OC1C2C(OC(=O)Cc3ccccc3)C(C)CC2(OC(C)=O)C(=O)C(C)=CC2C(CCC13CO3)C2(C)CO (stereo not drawn) [Compound M1, 18α-hydroxyl euphorbiasteroid] |  |  |  |  | √ | √ | √ | √ | √
3 | CC(=O)OC1C2C(OC(=O)Cc3ccc(O)cc3)C(C)CC2(OC(C)=O)C(=O)C(C)=CC2C(CCC13CO3)C2(C)C (centres unmarked) [Compound M2, 4′-hydroxyl euphorbiasteroid] |  |  |  |  | √ |  | √ | √ | √
4 | CC(=O)OC1C2C(OC(=O)C(O)c3ccccc3)C(C)CC2(OC(C)=O)C(=O)C(C)=CC2C(CCC13CO3)C2(C)C (centres unmarked) [Compound M4, 7′-hydroxyl euphorbiasteroid] |  |  |  |  | √ | √ | √ | √ | √
5 | CC(=O)OC1C2C(OC(=O)Cc3ccccc3O)C(C)CC2(OC(C)=O)C(=O)C(C)=CC2C(CCC13CO3)C2(C)C (centres unmarked) [Compound M5, 2′-hydroxyl euphorbiasteroid] |  |  |  |  | √ | √ |  | √ | √
6 | CC(=O)OC1C2C(OC(=O)Cc3ccccc3)C(CO)CC2(OC(C)=O)C(=O)C(C)=CC2C(CCC13CO3)C2(C)C (centres unmarked) [Compound M6] |  |  |  |  | √ | √ |  | √ | 
7 | CC(=O)OC1C2C(OC(=O)Cc3ccccc3O)C(C)CC2(OC(C)=O)C(=O)C(C)=CC2C(CCC13CO3)C2(C)CO (stereo not drawn) [Compound M8, 18α,2′-dihydroxyl euphorbiasteroid] |  |  |  |  | √ | √ | √ | √ | √
8 | CC(=O)OC1C2C(OC(=O)CC3=CC=CC(O)C3O)C(C)CC2(OC(C)=O)C(=O)C(C)=CC2C(CCC13CO3)C2(C)C (centres unmarked) [Compound M12, 5′,6′-dihydroxyl dihydroeuphorbiasteroid] |  |  |  |  | √ | √ |  | √ | √
9 | CC(=O)OC1C2C(OC(=O)CC3=CC(O)C(O)C=C3)C(C)CC2(OC(C)=O)C(=O)C(C)=CC2C(CCC13CO3)C2(C)C (centres unmarked) [Compound M13, 3′,4′-dihydroxyl dihydroeuphorbiasteroid] |  |  |  |  | √ | √ |  | √ | √
10 | CC(=O)OC1C2C(OC(=O)Cc3ccccc3)C(C=O)CC2(OC(C)=O)C(=O)C(C)=CC2C(CCC13CO3)C2(C)C (centres unmarked) [Compound M14] |  |  |  |  | √ | √ | √ |  | √
11 | CC(=O)OC1C2C(OC(=O)Cc3ccccc3)C(C=O)CC2(OC(C)=O)C(=O)C(C)=CC2C(CCC13CO3)C2(C)C (centres unmarked) [Compound M15] |  |  |  |  | √ | √ | √ |  | 
12 | CC(=O)OC1C2C(OC(=O)Cc3ccccc3)C(C)CC2(OC(C)=O)C(=O)C(C)=CC2C(CCC13CO3)C2(C)C(=O)O (stereo not drawn) [Compound M16, 18α-carboxyl euphorbiasteroid] |  |  |  |  | √ | √ | √ | √ | √
13 | CC(=O)OC1C2C(OC(=O)Cc3ccccc3)C(C(=O)O)CC2(OC(C)=O)C(=O)C(C)=CC2C(CCC13CO3)C2(C)C (centres unmarked) [Compound M17] |  |  |  |  | √ | √ |  | √ | √
14 | CC(=O)O[C@H]1[C@H]2[C@@H](OC(=O)Cc3ccccc3O[C@@H]3O[C@H](CO)[C@@H](O)[C@H](O)[C@H]3O)[C@@H](C)C[C@]2(OC(C)=O)C(=O)/C(C)=C/C2C(CC[C@@]13CO3)C2(C)C (some centres unmarked) [Compound M28] |  |  |  |  | √ |  |  |  | 
15 | euphorbiasteroid 2′-O-β-D-glucopyranoside [Compound M29] |  |  |  |  |  |  |  |  | √
